According to patent US20120202814A1, “COMPOUNDS WITH DDX3 INHIBITORY ACTIVITY AND USES THEREOF” (UNIVERSITÀ DEGLI STUDI DI SIENA, priority 2009, published 2012):
Like-named read-outs stand apart in the source and are kept apart here.

Legend:
HIV-1 = experiment: Antiviral assay, HIV-1 replication in infected PBMCs (viral RNA in supernatant); format: cell-based; conditions: for EC50: Human immunodeficiency virus 1, PBMC; for viral RNA, multiple rounds of replication: PBMC, wild type HIV-1, 5 days post infection, FE15 50 μM, FE66 (35b) 5 μM
Experimental: (§1) FIG. 1. A) Antiviral activity (expressed as % of viral load with respect to the control) of compounds FE56 and FE66 at 0.3 μM and 3 μM doses against single round HIV-1 replication in HeLaCD4+ cells infected with a wild type HIV-1 strain. Measurements were performed at 72 h post infection. B) Antiviral activity of compounds FE15 and FE66 on HIV-1 replication in phytohemagglutinin-stimulated peripheral blood mononuclear cells (PBMCs) […] with HeLa CD4^+-cell culture supernatants containing wild type HIV. Compounds were tested at 50 μM (FE15) and 5 μM (FE66). The HIV-1 RNA was quantified in the cell culture supernatant after 3, and 5 days of incubation. Results are expressed as HIV RNA copies/ml. Control (white bars).
FIG. 2. Antiviral activity of DDX3 inhibitors. A) Comparison of the antiviral activity (expressed as % of viral RNA with respect to the control) on infected PBMCs of a fixed dose of selected inhibitors. Measurements were performed at 72 h post infection. Values are the means of three independent replicates. Error bars are ±SD. White bars: control without drugs; dark grey bar: positive control with AZT (0.01 μM); black bar: first generation inhibitor FE15 (50 μM); light grey bars: second generation DDX3 inhibitors FE66, 11d and 38 (3 μM). B) Dose-response curves for the inhibiton of HIV-1 replication (expressed as % of viral RNA with respect to the control) in infected PBMCs by FE15 (circles) and 38 (triangles). Measurements were performed at 72 h post infection. Values are the means of three independent replicates. Error bars are ±SD.
In detail, 0.5 μg of each HIV-1 plasmid construct was transfected into CD4 HeLa cells by using the lipofectin reagent, according to the recommendations of the manufacturer (Invitrogen, Groningen, The Netherlands). After 3 days of incubation at 37° C., the cell supernatants, which contained reconstituted viable recombinant viruses, were collected. Quantification of the newly produced recombinant strains was obtained by determination of the HIV RNA copy number in the cell culture supernatants. Successively, 10 ml of transfected HeLa CD4^+-cell culture supernatants containing wild-type, and mutated recombinant HIV strain […], was used to infect aliquots of 10×10^6 phytohemagglutinin-stimulated peripheral blood mononuclear cells (PBMCs) from HIV-seronegative blood donors. After 4 h of incubation, supernatants were removed and infected PBMCs were incubated at 37° C. in 10 ml of RPMI 1640 medium (Eurobio, Les Ulis Cedex B, France) supplemented with 20% fetal calf serum (Life Technologies, Ltd., Paisley, Scotland), 2 mM l-glutamine, 100 U of penicillin per ml, 100 μg of streptomycin per ml, 10% interleukin-2 (ZeptoMetrix Co., Buffalo, N.Y.), 5 μg of hydrocortisone (Sigma Chemical Co.) per ml and with fourfold dilutions of antiretroviral drugs. No-drug controls for each drug dilution were included in each assay. After 3, 5 and 7 days of incubation the HIV-1 RNA in the cell culture supernatant was quantified. Recombinant HIV-1 strains from treatment-naive patients and multidrug resistance-associated changes were assayed in parallel. The degree of inhibition of viral replication was measured by determining the HIV-1 RNA level in the supernatants of cell cultures and was expressed as the fold increase in the 50% inhibitory concentrations (IC50s) for resistant recombinant HIV-1 variants compared with the IC50s for the wild-type recombinant variant. Each test was performed in triplicate.

[1] = Cell viability / cytotoxicity on HeLa cells; format: cell-based; conditions: human, HeLa cells (cervical cancer cell line)
Experimental: (§2) Cell viability in the presence of the compounds has been determined by standard MTT assays.
(§3) Selected compounds from Table 1 were tested against the cervical cancer HeLa cell line for antiproliferative activity. Cell viability was measured with the CellTiter viability assay (Table 2). Table 3 lists the calculated antiproliferative potencies (EC50, dose required to suppress 50% of cell viability) for a series of representative compounds of the invention.

HeLa cells = experiment: Cell viability / cytotoxicity on HeLa cells; format: cell-based; conditions: for Selectivity index HeLa, CC50/EC50: HeLa CC50 / antiviral EC50
Experimental: as §2, §3

[2] = Cell viability / cytotoxicity on MOLT-4 cells; format: cell-based; conditions: human, MOLT-4 cells; MOLT-4; Table 2 prints no unit; read-out: Cytotoxicity (CC50) MOLT-4, dose required to reduce 50% cell vitality
Description: as §2

MOLT-4 = experiment: Cell viability / cytotoxicity on MOLT-4 cells; format: cell-based; conditions: MOLT-4 CC50 / antiviral EC50
Description: as §2

[3] = Cell viability / cytotoxicity on PBMCs; format: cell-based; conditions: human; PBMCs; Table 2 prints no unit; read-out: Cytotoxicity (CC50) PBMCs, dose required to reduce 50% cell vitality
Description: as §2

PBMCs = experiment: Cell viability / cytotoxicity on PBMCs; format: cell-based; conditions: PBMCs CC50 / antiviral EC50
Description: as §2

[4] = biological target: T1, human DDX3 (ATPase activity) (Homo sapiens, UniProt O00571); experiment: Human DDX3 ATPase activity assay (luciferase-based luminescence); format: biochemical; conditions: DDX3 ATPase activity; read-out: Ki (μM), apparent equilibrium dissociation constant for the inhibitor to the target enzyme DDX3
T1 construct: made in house; host or cells: E. coli
Experimental: ATPase activity was tested with a luciferase-based luminescence assay (Easylite-Kinase, Perkin Elmer) on 96 wells microtiter plates. Briefly, recombinant purified human DDX3 (50-100 ng) was incubated in a 15 μL total reaction volume with reaction buffer (25 mM TrisHCl pH 7.5, 5 mM MgCl2), in the presence of increasing amounts of ATP and/or different combinations of ATP and the inhibitor to be tested. Reference curves in the absence of inhibitor (giving the 100% of enzymatic activity) and in the absence of enzyme (giving the baseline), were also included in each experiment. Reading was performed with a Microbeta Trilux (Perkin Elmer) luminometer, according to the manufacturer's protocol.
ATPase reactions were performed as described, in the presence of increasing amounts of inhibitor and variable ATP concentrations. Variations of the initial velocities of the reaction as a function of ATP concentrations in the absence or presence of 4 were analyzed with the equation: […]
Variation of the % inhibition as a function of compound FE15 at different ATP concentrations were fitted to the equation for cooperative binding: […]
where Vmax is the apparent maximal rate of the reaction in the absence of the inhibitor, [I] is the variable inhibitor concentration, n is the cooperativity index and Ki(app) is the apparent inhibition constant. Comparatively, fitting was done with the same Eq. (2) where n was kept fixed at the value of 1 (non-cooperativity hypothesis). F test was used to compare the two fittings and p value was calculated.
Human recombinant DDX3 was cloned, expressed and purified as described (Franca et al. Proteins 2007, 67, 1128-37).
The anti-DDX3 activity of the compounds of the invention was evaluated by in vitro ATPase activity assay using the recombinant human DDX3 protein produced in E. coli. The potency of inhibition (Ki) for each molecule was calculated, representing the concentration of the inhibitor able to reduce the DDX3 ATPase activity by 50%

wild type HIV-1 strain = experiment: HIV-1 single round replication in HeLaCD4+ cells; format: cell-based; conditions: wild type HIV-1, 0.3 μM and 3 μM doses, 72 h post infection
Experimental: as §1
Selected compounds from Table 1 were tested against HIV-1 replication in two different model systems.

[5] = test system: cervical cancer HeLa cell line; experiment: Antiproliferative activity against HeLa cells (CellTiter viability assay); format: cell-based; conditions: Homo sapiens
Experimental: as §3

[6] = read-out: Antiviral activity, dose required to reduce 50% viral proliferation (measured as viral RNA load)
[7] = HeLa, Table 2 prints no unit, text gives μM, read-out: Cytotoxicity (CC50) HeLa, dose required to reduce 50% cell vitality
[8] = 72 h, read-out: EC50, anti-HIV activity

T1 sequence (O00571 whole entry): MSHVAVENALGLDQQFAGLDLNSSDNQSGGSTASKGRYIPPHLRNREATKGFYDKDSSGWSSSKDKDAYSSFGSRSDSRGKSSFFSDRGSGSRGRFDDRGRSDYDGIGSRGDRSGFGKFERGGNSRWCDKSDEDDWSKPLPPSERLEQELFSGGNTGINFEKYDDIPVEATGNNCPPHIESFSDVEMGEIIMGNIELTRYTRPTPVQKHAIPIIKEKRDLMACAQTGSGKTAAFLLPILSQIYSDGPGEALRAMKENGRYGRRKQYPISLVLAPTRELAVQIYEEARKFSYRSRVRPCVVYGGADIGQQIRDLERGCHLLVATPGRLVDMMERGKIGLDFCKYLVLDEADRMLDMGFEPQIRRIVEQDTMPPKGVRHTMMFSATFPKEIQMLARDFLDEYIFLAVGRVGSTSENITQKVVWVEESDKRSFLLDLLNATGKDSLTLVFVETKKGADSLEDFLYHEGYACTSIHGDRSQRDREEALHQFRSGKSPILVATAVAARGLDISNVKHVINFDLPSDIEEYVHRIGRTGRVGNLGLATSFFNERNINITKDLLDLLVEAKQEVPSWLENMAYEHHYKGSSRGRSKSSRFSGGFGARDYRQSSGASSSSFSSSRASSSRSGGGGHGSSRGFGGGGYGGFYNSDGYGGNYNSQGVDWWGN

SMILES | EC50 (HIV-1; [6]) | CC50 [1, 7] | Selectivity index HeLa, CC50/EC50 (HeLa cells) | CC50 [2] | Selectivity index MOLT-4, CC50/EC50 (MOLT-4) | CC50 [3] | Selectivity index PBMCs, CC50/EC50 (PBMCs) | Ki [4] | EC50 (HIV-1; [8]) | viral RNA, multiple rounds of replication (HIV-1) | viral load (viral RNA copies), single-round replication (wild type HIV-1 strain) | EC50 ([5]; 48 hours, read-out: EC50 (μM) 48 hours, dose required to suppress 50% of cell viability) | EC50 ([5]; 72 hours, read-out: EC50 (μM) 72 hours, dose required to suppress 50% of cell viability) | melting point | fold higher antiviral potency than the inhibitor FE15 (HIV-1; HIV-1 infected PBMCs, ratio of EC50) | reduction of viral load compared with 11d and 38 at 3 μM (HIV-1; HIV-1 infected PBMCs, compound at 50 μM, 72 h post infection) | CC50 ([1]; read-out: CC50, cytotoxicity on HeLa cells) | CC50 (HeLa cells; [7])
Oc1ccccc1/C=N/Nc1nc(Nc2ccc(F)cc2)nc(N2CCOCC2)n1 [Compound 16c] | 2.5 ± 0.1 µM | 2.5 ± 0.3 µM | 1.0 | 5 ± 1 µM | 2.0 | 10 ± 1 µM | 4.0 | – | – | – | – | – | – | – | – | – | – | –
O=C(CCN1C(=O)/C(=C/c2cccc(F)c2)SC1=S)Nc1ccccc1O [Compound 35b, 3-((Z)-5-(3-Fluorobenzylidene)-4-oxo-2-thioxothiazolidin-3-yl)-N-(2-hydroxyphenyl) propanamide] | 7.5 ± 0.7 µM | 50 ± 5 µM | 6.7 | 50 ± 10 µM | 6.7 | 50 ± 5 µM | 6.7 | 0.3 µM | 7.5 µM | significant reduction of viral RNA | dose-dependent reduction of viral load | 50 µM | 10 µM | 210 to 211 °C | – | – | – | –
Oc1ccccc1/C=N/Nc1nc(Nc2ccc(F)cc2)nc(Nc2ccc(F)cc2)n1 [Compound 38, (E)-2-((2-(4,6-bis(4-Fluorophenylamino)-1,3,5-triazin-2-yl)hydrazono)methyl)phenol] | 2 ± 0.2 µM | 20 ± 2 µM | 10 | 10 ± 1 µM | 5.0 | 8 ± 0.5 µM | 4.0 | 0.1 µM | 2 µM | – | – | – | – | – | 41 fold | – | – | –
O=C(CCN1C(=O)/C(=C/c2cccc(Br)c2)SC1=S)Nc1ccccc1O [FE-15, (Z)-3-(5-(3-Bromobenzylidene)-4-oxo-2-thioxothiazolidin-3-yl)-N-(2-hydroxyphenyl)propanamide] | 83 ± 7 µM | – | 2.4 | > 200 µM | 2.4 | > 150 µM | 1.8 | 4.5 µM | 83 µM | significant reduction of viral RNA | – | – | – | 222 to 224 °C | – | comparable effects | > 200 µM | > 200 µM
O=C1Nc2ccccc2/C1=N/Nc1nc(Nc2ccccc2)nc(Nc2ccccc2)n1 [FE-56] | – | – | – | – | – | – | – | 0.4 µM | – | – | dose-dependent reduction of viral load | – | – | – | – | – | – | –
